For orientation: IC50 means the concentration at which inhibition is half-maximal.

Results on 41 compounds are retold here after patent US20220298213A1, “IN VIVO ENGINEERED CEREBLON PROTEIN” (Vividion Therapeutics, Inc., priority 2018, published 2022).

Each structure is given as a SMILES string.

The target of the first assay is T1, CRBN_C287 (Homo sapiens, UniProt Q96SW2).
T1 construct: endogenous in cells; host or cells: cell lysate
T1 sequence (Q96SW2 whole entry): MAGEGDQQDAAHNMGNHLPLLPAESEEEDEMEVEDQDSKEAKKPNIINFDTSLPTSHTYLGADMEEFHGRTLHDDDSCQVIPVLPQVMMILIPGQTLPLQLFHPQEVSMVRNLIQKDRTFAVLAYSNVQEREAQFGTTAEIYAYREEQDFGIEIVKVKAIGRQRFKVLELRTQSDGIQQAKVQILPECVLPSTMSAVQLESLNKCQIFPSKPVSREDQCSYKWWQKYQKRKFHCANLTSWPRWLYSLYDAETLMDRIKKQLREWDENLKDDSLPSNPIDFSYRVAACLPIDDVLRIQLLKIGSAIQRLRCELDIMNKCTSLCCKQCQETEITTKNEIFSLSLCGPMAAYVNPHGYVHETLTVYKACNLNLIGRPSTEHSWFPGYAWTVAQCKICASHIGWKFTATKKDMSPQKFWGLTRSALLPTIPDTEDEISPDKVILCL
Briefly: CRBN C287 inhibition, probe labeling in lysate (Example 42). The format is binding. The conditions noted are these: 500 uM, lysate, 1 h; read-out: % inh @ 500 uM (CRBN_C287, lysate 1 h). The procedure:
The following 96-well sample prep protocol was used for sample preparation.
Cells were resuspended in cold PBS on ice and sonicated with a probe sonicator to achieve lysis. 200 μL of lysate containing 5 mg/ml proteome was treated with 2 μL of 100× compound stock in a 2-mL deep-well plate. The treated lysate was subsequently incubate at 25° C. for 1 hr with shaking at 600 rpm. The treated lysate was further incubated with 2 μL of 10 mM desthiobiotin iodoacetamide probe at 25° C. for 1 hr with shaking at 600 rpm. […] 1.7 mL ice-cold acetone was added to each well and incubated at −20° C. for 2 hr, followed by max speed (4200 rpm) spin for 45 min. Acetone was then decanted and the plates were blotted to remove acetone. The plates were then dried in open air for 20 minutes. After drying, the plates were then covered with foil seal and stored at −80° C. overnight.
The next day, samples were re-suspended in 90 μL of solution of 9M urea, 50 mM ammonium bicarbonate and 10 mM DTT by incubating at 65° C. for 20 min with shaking at 1500 rpm. […] The samples were then incubated at 37° C. for 30 min with shaking at 600 rpm.
ZEBA desalting plates were equilibrated 4 times using 250 μL of 2M urea, 50 mM ammonium bicarbonate solution followed by centrifugation at 1500 rpm for 2 minutes. After equilibration was complete, samples were applied to ZEBA desalting plate and spin at 1500 rpm for 2 min on top of 1 mL 96-well deep-well collection plate to buffer exchange samples. 4 μL of solution containing 25 mM CaCl2 and 0.25 mg/mL trypsin was added to the plate and the plate was then incubated at 37° C. for 2 hrs with shaking at 600 rpm. 300 μL of solution containing 5% high-capacity streptavidin agarose slurry in 25 mM Tris-HCl pH 7.5, 150 mM NaCl, and 0.1% NP-40 then added. The plate was incubated at 25° C. for 2 hrs with shaking at 600 rpm. Samples were transferred to 25 μm filter plate and spin at 1000 rpm for 2 min. Samples were then washed 3 times with 0.75 mL of wash buffer (25 mM Tris-HCl pH 7.5, 150 mM NaCl, and 0.1% NP-40) followed by washing 3 times with 0.75 mL PBS, and then 4 times with 0.75 mL water. After the washing step, samples were eluted into polypropylene 96-well plate by addition of 250 μL of 50% MeCN/water, 0.1% formic acid and allowed to gravity drip for 10 min, followed by centrifugation at 1000 rpm for 2 min. Speedvac was used to dry the plates at about 45° C. for […]. Then the plates were covered with foil seal and stored at −20° C.
Then add 30 μL of 0.1% formic acid solution was added and the plate was covered and incubated at 42° C. for 10 minutes with shaking at 600 rpm. Seal plate was then sealed with a 96-well silicon mat for analysis.
Regarding `C=CC(=O)N1CCC(Oc2cccc(-c3ccc(F)cc3OC)c2)CC1` [Example 1, 1-(4-((4′-fluoro-2′-methoxy-[1,1′-biphenyl]-3-yl)oxy)piperidin-1-yl)prop-2-en-1-one], the inhibition at 500 µM came out at 74.8%.

As for `C=CC(=O)N1CCC(Oc2cccc(-c3ccccc3OCC)c2)CC1` [Example 2], the inhibition at 500 µM was 59.8%.

For `C=CC(=O)N1CCC(Oc2cccc(-c3ccccc3O)c2)CC1` [Example 3], the inhibition at 500 µM came to 48.9%.

`C=CC(=O)N1CCC(Oc2cccc(-c3ccccc3Cl)c2)CC1` [Example 4]: the inhibition at 500 µM was 64.8%.

As for `C=CC(=O)N1CCC(Oc2cc(Cl)cc(-c3ccccc3OC)c2)CC1` [Example 5], the inhibition at 500 µM was determined as 88.5%.

Turning to `C=CC(=O)N1CCC(Oc2cc(Cl)cc(-c3ccccc3)c2)CC1` [Example 6], the inhibition at 500 µM was 72.2%.

In the case of `C=CC(=O)N1CCC(Oc2cccc(-c3ccccc3OC)c2)CC1` [Example 7], the inhibition at 500 µM came out at 91.2%.

`C#CC(=O)N1CCC(Oc2cccc(-c3ccccc3)c2)CC1` [Example 8]: the inhibition at 500 µM was found to be 76.8%.

`C#CC(=O)N1CCC(Oc2cccc(-c3ccccc3OC)c2)CC1` [Example 9]: the inhibition at 500 µM was found to be 88.8%.

Consider `CN(C)C/C=C/C(=O)N1CCC(Oc2cccc(-c3ccccc3)c2)CC1` [Example 10], for which the inhibition at 500 µM came to 52.4%.

For the compound `COc1ccccc1-c1cccc(OC2CCN(C(=O)/C=C/CN(C)C)CC2)c1` [Example 11], the inhibition at 500 µM turned out to be 92.9%.

In the case of `COc1ccccc1-c1cc(C#N)cc(OC2CCN(C(=O)/C=C/CN3CCOCC3)CC2)c1` [Example 12], the inhibition at 500 µM was 87.2%.

Take `C=CC(=O)N1CCC(Oc2cc(C#N)cc(-c3ccccc3)c2)CC1` [Example 13]: the inhibition at 500 µM is 81.3%.

For `C=CC(=O)N1CCC(Oc2cc(C#N)cc(-c3ccccc3OC)c2)CC1` [Example 14], the inhibition at 500 µM is 94.5%.

Regarding `C=CC(=O)N1CCC(Oc2cccc(-c3ccccc3OC)c2Cl)CC1` [Example 18], the inhibition at 500 µM is 60.4%.

On to `C=CC(=O)N1CCC(Oc2cccc(-c3ccccc3)c2C#N)CC1` [Example 19], for which the inhibition at 500 µM was 68.2%.

As to `C=CC(=O)N1CCC(Oc2cccc(-c3ccccc3OC)c2C#N)CC1` [Example 20], the inhibition at 500 µM turned out to be 57.6%.

Regarding `C=CC(=O)N1CCC(Oc2cc(-c3ccccc3OC)ccc2C(N)=O)CC1` [Example 21], the inhibition at 500 µM stood at 64.6%.

In the case of `C=CC(=O)N1CCC(Oc2cc(C(N)=O)cc(-c3ccccc3OC)c2)CC1` [Example 22], the inhibition at 500 µM is 95.2%.

Turning to `C=CC(=O)N1CCC(Oc2cc(OC)cc(-c3ccccc3)c2)CC1` [Example 23], the inhibition at 500 µM was found to be 91.1%.

With `C=CC(=O)N1CCC(Oc2cc(OC)cc(-c3ccccc3OC)c2)CC1` [Example 24], the inhibition at 500 µM was 89.3%.

With `C=CC(=O)N1CCC(Oc2cc(C(=O)NC)cc(-c3ccccc3OC)c2)CC1` [Example 26], the inhibition at 500 µM is 77.4%.

With `C=CC(=O)N1C2CCC1CC(Oc1cc(C#N)cc(-c3ccccc3OC)c1)C2` [Example 38, 5-(((1R,3s,5S)-8-acryloyl-8-azabicyclo[3.2.1]octan-3-yl)oxy)-2′-methoxy-[1,1′-biphenyl]-3-carbonitrile], the inhibition at 500 µM is 78%.

The same assay, now with this note: CRBN_C287, lysate 1 h.
Turning to `C=CC(=O)N1CCn2c(nnc2C(F)(F)F)C1`, the “CRBN_C287 inhibition, result in words” value is on record as “No activity”.

Turning to `C=CC(=O)N1CCC(Oc2ccc(-c3ccc(S(C)(=O)=O)cc3)cc2)CC1`, the “CRBN_C287 inhibition, result in words” value was “No activity”.

Still in this assay, the particulars now being: TE50, CRBN_C287, lysate 1 h.
As for `C=CC(=O)N1CCC(Oc2cc(C#N)cc(-c3ccccc3OC)c2)C(C)C1` (single isomer, unassigned) [Example 33, 5-((1-acryloyl-3-methylpiperidin-4-yl)oxy)-2′-methoxy-[1,1′-biphenyl]-3-carbonitrile], the IC50 was 4.66 µM.

With `C=CC(=O)N1CCC(Oc2cc(C#N)cc(-c3ccccc3OC)c2)C(C)C1` (single isomer, unassigned) [Example 34, 5-((1-acryloyl-3-methylpiperidin-4-yl)oxy)-2′-methoxy-[1,1′-biphenyl]-3-carbonitrile], 8.97 µM corresponded to half-maximal inhibition (IC50). Against the preceding compound, the IC50 is about 1.9-fold higher.

`C=CC(=O)N1CCC(Oc2cc(C#N)cc(-c3ccccc3OC)c2)C(C)C1` (single isomer, unassigned) [Example 35, 5-((1-acryloyl-3-methylpiperidin-4-yl)oxy)-2′-methoxy-[1,1′-biphenyl]-3-carbonitrile] returned an IC50 of 9.8 µM. The IC50 values of the last two compounds are within 1.5-fold of each other.

Compound `C=CC(=O)N1CCC(Oc2cc(C#N)cc(-c3ccccc3CC)c2)CC1` [Example 15] showed an IC50 of 22.2 µM.

Compound `COc1ccccc1-c1cc(C#N)cc(OC2CCN(C(=O)/C(C#N)=C/C(C)C)CC2)c1` [Example 16] registered a half-maximal inhibitory concentration (IC50) of 0.12 µM.

As to `C=CC(=O)N1CCC(Oc2cc(-c3ccccc3OC)cnn2)CC1` [Example 27, 1-(4-((5-(2-methoxyphenyl)pyridazin-3-yl)oxy)piperidin-1-yl)prop-2-en-1-one], the midpoint of inhibition, the IC50, lay at 7.5 µM.

`C=CC(=O)N1CCC(Oc2cc(-c3ccccc3OC)cc(C#N)n2)CC1` [Example 28, 6-((1-acryloylpiperidin-4-yl)oxy)-4-(2-methoxyphenyl)picolinonitrile] displayed an IC50 of 80 µM.

`C=CC(=O)N1CC[C@H](Oc2cc(C#N)cc(-c3ccccc3OC)c2)[C@@H](F)C1` [Example 29, 5-(((3S,4S)-1-acryloyl-3-fluoropiperidin-4-yl)oxy)-2′-methoxy-[1,1′-biphenyl]-3-carbonitrile] yielded an IC50 of 1.25 µM.

Regarding `C=CC(=O)N1CC[C@@H](Oc2cc(C#N)cc(-c3ccccc3OC)c2)[C@H](F)C1` [Example 30, 5-(((3R,4R)-1-acryloyl-3-fluoropiperidin-4-yl)oxy)-2′-methoxy-[1,1′-biphenyl]-3-carbonitrile], the IC50 worked out at 0.4 µM.

Compound `C=CC(=O)N1CC[C@H](Oc2cc(C#N)cc(-c3ccccc3OC)c2)[C@H](F)C1` [Example 31, 5-(((3R,4S)-1-acryloyl-3-fluoropiperidin-4-yl)oxy)-2′-methoxy-[1,1′-biphenyl]-3-carbonitrile] yielded an IC50 of 0.29 µM.

For the compound `C=CC(=O)N1CC[C@@H](Oc2cc(C#N)cc(-c3ccccc3OC)c2)[C@@H](F)C1` [Example 32, 5-(((3S,4R)-1-acryloyl-3-fluoropiperidin-4-yl)oxy)-2′-methoxy-[1,1′-biphenyl]-3-carbonitrile], half-maximal inhibition (IC50) was put at 1.49 µM.

The compound `C=CC(=O)N1CC(Oc2cc(C#N)cc(-c3ccccc3OC)c2)C1` [Example 36, 5-((1-acryloylazetidin-3-yl)oxy)-2′-methoxy-[1,1′-biphenyl]-3-carbonitrile] had a half-inhibitory concentration (IC50) of 0.12 µM.

`C=CC(=O)N1CCC(Sc2cccc(-c3ccccc3OC)c2)CC1` [Example 37, 1-(4-((2′-methoxy-[1,1′-biphenyl]-3-yl)thio)piperidin-1-yl)prop-2-en-1-one]: the midpoint of inhibition, the IC50, lay at 31 µM.

On to `C=CC(=O)N1[C@@H]2CC[C@H]1C[C@H](Oc1cc(C(N)=O)cc(-c3ccccc3OC)c1)C2` [Example 39, 5-(((1R,3s,5S)-8-acryloyl-8-azabicyclo[3.2.1]octan-3-yl)oxy)-2′-methoxy-[1,1′-biphenyl]-3-carboxamide], for which the IC50 is 53 µM. Against the preceding compound, the IC50 is about 1.7-fold higher.

For `C#CCOCCOCCOCCOc1ccc(OC)c(-c2cc(C#N)cc(OC3CCN(C(=O)C=C)CC3)c2)c1` [Example 40, 3-[2-methoxy-5-[2-[2-(2-prop-2-ynoxyethoxy)ethoxy]ethoxy]phenyl]-5-[(1-prop-2-enoyl-4-piperidyl)oxy]benzonitrile], the IC50 amounted to 2.57 µM. This IC50 lies about 21-fold lower than the previous one.

`C=CC(=O)N1CCC(Oc2cc(OC(F)(F)F)cc(-c3ccccc3OC)c2)CC1` [Example 41, 1-(4-((2′-methoxy-5-(trifluoromethoxy)-[1,1′-biphenyl]-3-yl)oxy)piperidin-1-yl)prop-2-en-1-one]: it took 31 µM to reach half-maximal inhibition (IC50).
